Common to all, as to format: in vivo
Experiment [1] concerns Xanthomonas axonopodis pv. vesicatoria. Kind of experiment: ISR screening under greenhouse conditions, bacterial spot disease in pepper. The conditions noted are these: irrigation, 1 mM, second screening. The procedure:
FIGS. 1A and 1B illustrate the effect of the eighteen different volatile organic compounds from Bacillus amyloliquefaciens IN937a strain on plant ISR against Xanthomonas axonopodis pv. vesicatoria under greenhouse conditions. […] The positive control plant was treated with 0.5 mM benzothiadiazole (BTH). The disease occurrence rate (i.e., 0 to 5) as an indicator of ISR was measured on Day 7 following inoculation of pathogen (i.e., 0: no symptoms; 5: severe symptoms of necrosis).
In order to determine the ISR properties of the previously selected, eighteen different volatile organic compounds from the Bacillus amyloliquefaciens IN937a strain, young pepper was grown for 3 to 4 weeks after seeding and irrigated, with the compounds present, in concentrations of 10 μM or 100 nM in 50 ml volumes. One week following irrigation treatment, the plant was exposed to Xanthomonas axonopodis pv. vesicatoria at a concentration of 10^7 CFU/ml. Symptoms of disease were observed five to seven days later, and the level of disease was measured based on a scale from 0 to 5, as described above. In a second screening, four volatile substances, selected from the first screening, were incorporated into the irrigation treatment at concentrations of 1 mM, 10 μM, 0.1 μM, and 1 nM. After exposure to pathogen, symptoms of disease were observed.

Experiment [2] shares this test system. Put plainly: ISR under field conditions, bacterial spot disease in pepper. The conditions noted are these: for disease level (ISR against bacterial spot disease): 1 mM 3-pentanol; for resistance to the disease (bacterial spot): additional 3-pentanol treatment. The procedure:
FIGS. 2A and 2B illustrate the effect of 3-pentanol on plant ISR against Xanthomonas axonopodis pv. vesicatoria under field conditions at different time points. The ISR effect of 3-pentanol was measured on Day 10, Day 20, Day 30, and Day 40 after seedling transplantation. The positive control plant was treated with 0.5 mM BTH. The disease occurrence rate (i.e., 0 to 5) as an indicator of ISR was measured on Day 10 following inoculation of pathogen.
3-Pentanol, having shown ISR properties, was used for subsequent direct applications. Pepper seeds were purchased from Heungnong Jongmyo (breed; Bugang). The surface of the seeds were sterilized for 5 minutes using 1% sodium hypochlorite and rinsed with sterilized water for 5 min. The surface sterilized seeds were allowed to germinate on MS medium containing an appropriate amount of moisture. Germinated seeds, without m having any contamination, were planted in a 50-hole pot (28×54×6 cm) filled with soil for horticultural use (Punong Co., Ltd, Korea) and cultivated for six weeks in a greenhouse at 20 to 30° C. Six weeks after seeding and upon growth of seven to eight main leaves, 1 mM 3-pentanol was diluted to a volume of about 3 liters with sterilized water and poured into the 50-hole pot dish. In order to have effective soaking of the immersion solution in the soil and roots of the plant, immersion was carried out over about 24 hours. After 24-hour immersion, the young pepper plants were transplanted into a field (i.e., Chungyong-Li, Gaduk-Myon, Chungwon-Gun, Chungchongbuk-Do, South Korea 36°32′27.26″ North and 127°33′07.81″ East). The burrow to burrow distance was 1.2 m and the field was about 12.5 m to ensure the treatment areas were evenly mixed with each other. Twenty days after the final transplantation into the field, a secondary application of 1 mM 3-pentanol diluted to a volume of about 3 liters with sterilized water, was applied as 100 mL irrigation treatments for each. The test method used was as follows: after final transplantation, using a syringe, Xanthomonas axonopodis pv. vesicatoria at the concentration of 10^7 CFU/ml was exposed to the backside of the pepper leaf at intervals of 10 days until Day 40. Responses were then examined seven to ten days after exposure. The bacterial inoculant has been cultured for 48 hours at 30° C. after adding antibiotics of Rifampicin (100 μg/ml) to a solid medium. The control group received zero treatment and the treatment group received four applications. The disease occurrence rate was determined based on comparison and observation at 10 day intervals until Day 40. The severity of symptoms was scored as in Yang et al. 2009, Plant Pathol. […]

Experiment [3] concerns PR1 and PR4 genes. Kind of experiment: Expression analysis of resistance genes by qRT-PCR. To be noted: pepper leaf, six hours after inoculation of pathogen. The procedure: FIGS. 3A through 3D illustrate expression of the defense-related genes PR1 and PR4 induced by 3-pentanol following inoculation of pathogen to pepper. Expression of the defense signal transduction related genes PR1 and PR4 at 10 dpt (FIG. 3A), 20 dpt (FIG. 3B), 30 dpt (FIG. 3C), and 40 dpt (FIG. 3D) was determined by quantitative RT-PCR. Relative RNA levels were calibrated and normalized to the level of CaActin mRNA. The samples were collected 6 hours post inoculation of pathogen. The positive control group plant was treated with BTH.
Expression of PR1 and PR4 genes related to the disease resistance of pepper were examined based on quantitative real time-polymerase chain reaction (qRT-PCR). The sequences of the primers used are as follows.
Following bacterial exposure to the backside of a pepper leaf, the pepper leaf was cut using scissors at 0 hours and at 6 hours and stored in liquid nitrogen. RNA isolation began with the pepper leaf being ground in liquid nitrogen using a mortar and pestle, The RNA was then extracted from the pepper leaf by using TRIzol Reagent (Invitrogen Life Technologies). […]

In experiment [4] the test system is cucumber mosaic virus. Kind of experiment: ISR against naturally occurring cucumber mosaic virus disease under field conditions. The conditions noted are these: pepper, three months after final transplantation, versus control group. An excerpt:
(§1) FIGS. 5A through 5C illustrate the effect of 3-pentanol on ISR against naturally occurring plant diseases under field conditions. FIG. 5A illustrates the effect of 3-pentanol on cucumber mosaic virus (CMV) disease three months after the treatment, FIG. 5B illustrates the symptoms of the viral disease (the photographic image was taken three months after the naturally occurring plant disease), and FIG. 5C illustrates the effect of 3-pentanol on bacterial leaf spot disease three months after treatment. The positive control group plant was treated with 0.5 mM BTH. The disease occurrence rate (i.e., 0 to 5) as an indicator of ISR was measured three months after transplantation (i.e., 0: no symptoms; 5: severe symptoms of necrosis).
(§2) 3-Pentanol, having shown ISR properties, was used for subsequent direct applications. Pepper seeds were purchased from Heungnong Jongmyo (breed; Bugang). The surface of the seeds were sterilized for 5 minutes using 1% sodium hypochlorite and rinsed with sterilized water for 5 min. The surface sterilized seeds were allowed to germinate on MS medium containing an appropriate amount of moisture. […] The disease occurrence rate was determined based on comparison and observation at 10 day intervals until Day 40. The severity of symptoms was scored as in Yang et al. 2009, Plant Pathol. […]

The subject of experiment [5] is bacterial leaf spot disease. Put plainly: ISR against naturally occurring bacterial leaf spot disease under field conditions. The conditions noted are these: pepper, three months after final transplantation.
Description: as §1, §2

In experiment [6] the test system is Pseudomonas syringae pv. lachrymans. Kind of experiment: Angular leaf spot disease severity in cucumber. To be noted: 1 mM drench, 28 days post seeding, 7 days after spray-challenge. The procedure:
FIG. 7 illustrates induction of systemic resistance by 1 mM 3-pentanol against Pseudomonas syringae pv. lachrymans. The severity of symptoms was scored from 0 to 5 as follows: 0, no symptoms; 1, yellowish color; 2, chlorosis only; 3, partial necrosis and chlorosis; 4, necrosis of the inoculated area and expanded chlorosis; and 5, complete necrosis of the inoculated area. Disease severity of cucumber treated with 3-pentanol was assessed 7 days after infection with P. syringae pv. lachrymans. Water and 1 mM BTH were used as negative and positive controls, respectively. […] Error bars indicate the standard error (n=16). […]
For pathogen challenge, a culture of the compatible bacterial pathogen Pseudomonas syringae pv. lachrymans (OD600=1 in 10 mM MgCl2) was spray-challenged on cucumber leaves until run-off at 7 days after the drench application of chemicals to roots at 21 days after seeding. The severity of symptoms was scored from 0 to 5 as follows: 0, no symptoms; 1, less than 20% diseased area; 2, 21%-40% diseased area; 3, 41%-60% diseased area; 4, 61%-80% diseased area; and 5, more than 81% diseased area of the entire leaf Bacterial pathogens were cultured overnight at 28° C. in King's B medium supplemented with the appropriate antibiotics (100 μg/mL). […] The total numbers of nymph and adult aphids were counted at 34 days after seeding. […]

Experiment [7] relates to aphids. Kind of experiment: Aphid infestation of cucumber, naturally occurring aphids. To be noted: 1 mM soil drench, 34 dps. An excerpt:
FIGS. 8A and 8B illustrate that 3-pentanol confers induced resistance against aphids in cucumber: (a), Nymph number; (b), Adult number. Bars represent the mean±SE (sample size, n=12 replications per treatment).
Cucumber plants (Cucumis sativus L. cv. backdadagi) were cultivated in an open field under natural conditions. For greenhouse experiments, seeds were directly planted in pots containing soilless medium (Punong Co. Ltd., Gyeongju, Korea) in a 24 hole plug tray under greenhouse condition. The germinated seedlings were transplanted into large pots (diameter=30 cm; height=30 cm). Chemical treatments to elicit induced resistance in cucumber were carried out. Briefly, the 14 day old cucumber seedlings were treated by direct drench application of 50 mL solution of 1 mM 3-pentanol. 3-pentanol bought from Sigma-Aldrich Co. was dissolved in distilled water before application. Treatments with 1 mM benzothiadiazole (BTH) and water were used as positive and negative controls, respectively.
For pathogen challenge, a culture of the compatible bacterial pathogen Pseudomonas syringae pv. lachrymans (OD600=1 in 10 mM MgCl2) was spray-challenged on cucumber leaves until run-off at 7 days after the drench application of chemicals to roots at 21 days after seeding. The severity of symptoms was scored from 0 to 5 as follows: 0, no symptoms; 1, less than 20% diseased area; 2, 21%-40% diseased area; 3, 41%-60% diseased area; 4, 61%-80% diseased area; and 5, more than 81% diseased area of the entire leaf Bacterial pathogens were cultured overnight at 28° C. in King's B medium supplemented with the appropriate antibiotics (100 μg/mL). As a positive control, roots were treated with 1 mM BTH. […] To investigate whether the 3-pentanol elicited plant immunity to aphid feeding, numbers of naturally occurring aphids (in 2011, Daejeon, Korea) were counted. Application of 1 mM BTH was used as a positive control. The total numbers of nymph and adult aphids were counted at 34 days after seeding. The experiments were repeated with similar results.

As for `CCC(O)CC` [3-pentanol], in experiment [1], the “resistance to bacterial spot disease in pepper, outcome of screening” value was “finally selected”. Besides, the “disease level (ISR against bacterial spot disease)” value was “no difference compared to the control group” in experiment [2] (ten days after final transplantation) and “less than the control group” in experiment [2] (twenty days after final transplantation). The “resistance to the disease (bacterial spot)” value in experiment [2] (forty days after final transplantation) and in experiment [2] (thirty days after final transplantation) was “higher resistance to the disease compared to the control group” each time. Moreover, the “expression level of PR gene” value in experiment [3] (Day 10 after final transplantation) is reported as “lower expression level of PR gene compared to the control group”. Further, the “expression of PR gene” value in experiment [3] (from Day 20 after transplantation) was “the same or higher than that of the control group”. Further, the “resistance to cucumber mosaic virus” value in experiment [4] was “significantly increased”. In experiment [5], the “resistance to bacterial leaf spot disease” value is “not different among three treatment groups”. In addition, the “less symptom severity compared to water control” value in experiment [6] stood at 24%. Further, the “number of adult aphids” value in experiment [7] came out at 1.0 per leaf. Besides, the “number of aphid nymphs” value in experiment [7] was 21 per leaf.
For the compound `c1ccc2snnc2c1` [BTH, benzothiadiazole, reference compound], in experiment [4], the “resistance to cucumber mosaic virus” value is “almost the same”. In addition, the “resistance to bacterial leaf spot disease” value in experiment [5] was “not different among three treatment groups”. Further, in experiment [7], the “number of adult aphids” value stood at 0.4 per leaf and the “number of aphid nymphs” value worked out at 20 per leaf.
